Results on 1 compound are retold here after patent publication US11358949B2, “Carbamate and urea compounds as multikinase inhibitors” (ANGEX PHARMACEUTICAL, INC., priority 2017, dated 2022).

For one test, the target named is EPHA1 (Homo sapiens, UniProt P21709). In words: HotSpot Kinase Assay, EPHA1.
Another test has as its target FLT3 (Homo sapiens, UniProt P36888). Briefly: HotSpot Kinase Assay, FLT3.
The target of another test is FLT1 (Homo sapiens, UniProt P17948). In words: HotSpot Kinase Assay, FLT1.
Chain of FLT1 (P17948 27-1338): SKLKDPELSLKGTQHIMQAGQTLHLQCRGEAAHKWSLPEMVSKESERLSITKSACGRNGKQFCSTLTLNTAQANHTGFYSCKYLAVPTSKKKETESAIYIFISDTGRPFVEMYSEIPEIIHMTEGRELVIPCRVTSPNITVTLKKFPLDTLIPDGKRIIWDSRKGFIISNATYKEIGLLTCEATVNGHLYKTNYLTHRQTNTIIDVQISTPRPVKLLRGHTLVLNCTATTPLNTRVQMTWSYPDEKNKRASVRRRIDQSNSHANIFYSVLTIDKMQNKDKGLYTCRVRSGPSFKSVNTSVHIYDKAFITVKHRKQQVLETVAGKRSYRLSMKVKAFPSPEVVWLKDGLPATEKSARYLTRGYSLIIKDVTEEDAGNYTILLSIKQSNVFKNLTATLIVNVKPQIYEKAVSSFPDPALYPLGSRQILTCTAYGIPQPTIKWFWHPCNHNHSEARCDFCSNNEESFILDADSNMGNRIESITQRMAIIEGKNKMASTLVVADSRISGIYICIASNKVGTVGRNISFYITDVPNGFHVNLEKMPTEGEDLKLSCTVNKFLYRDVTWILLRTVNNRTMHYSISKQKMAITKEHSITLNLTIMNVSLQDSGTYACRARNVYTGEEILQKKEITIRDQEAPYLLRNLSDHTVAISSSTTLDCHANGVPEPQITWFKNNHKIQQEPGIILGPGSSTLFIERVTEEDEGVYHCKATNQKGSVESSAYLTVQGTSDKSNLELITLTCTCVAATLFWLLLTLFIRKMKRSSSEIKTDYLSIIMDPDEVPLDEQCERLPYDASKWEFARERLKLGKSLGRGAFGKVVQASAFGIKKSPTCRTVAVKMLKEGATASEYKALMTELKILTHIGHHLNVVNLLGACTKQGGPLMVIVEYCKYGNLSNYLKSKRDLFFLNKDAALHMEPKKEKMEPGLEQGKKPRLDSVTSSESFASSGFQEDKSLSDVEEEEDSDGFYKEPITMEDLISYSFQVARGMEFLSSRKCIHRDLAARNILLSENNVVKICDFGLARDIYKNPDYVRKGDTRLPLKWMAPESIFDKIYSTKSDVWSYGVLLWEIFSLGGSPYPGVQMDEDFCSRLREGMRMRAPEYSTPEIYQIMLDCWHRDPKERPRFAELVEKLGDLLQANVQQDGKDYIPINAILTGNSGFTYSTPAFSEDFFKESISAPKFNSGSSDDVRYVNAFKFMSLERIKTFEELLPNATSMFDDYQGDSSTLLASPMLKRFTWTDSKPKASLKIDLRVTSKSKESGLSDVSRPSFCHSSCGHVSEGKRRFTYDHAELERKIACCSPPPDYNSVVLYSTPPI
A further test concerns the target CDK7/cyclin H (Homo sapiens, UniProt P50613). In words: HotSpot Kinase Assay, CDK7/cyclin H.
For a further test, the target named is MEK1 (Homo sapiens, UniProt Q02750). Briefly: HotSpot Kinase Assay, MEK1.
Another test addresses DDR1 (Homo sapiens, UniProt Q08345). Briefly: HotSpot Kinase Assay, DDR1.
Another test addresses TIE2/TEK (Homo sapiens, UniProt Q02763). In words: HotSpot Kinase Assay, TIE2/TEK.
Another test concerns the target BRK (Homo sapiens, UniProt Q13882). In words: HotSpot Kinase Assay, BRK.
For the next test, the target named is PLK4/SAK (Homo sapiens, UniProt O00444). In words: HotSpot Kinase Assay, PLK4/SAK.
The target in the next test is KHS/MAP4K5 (Homo sapiens, UniProt Q9Y4K4). Briefly: HotSpot Kinase Assay, KHS/MAP4K5.
Chain of KHS/MAP4K5 (Q9Y4K4 whole entry): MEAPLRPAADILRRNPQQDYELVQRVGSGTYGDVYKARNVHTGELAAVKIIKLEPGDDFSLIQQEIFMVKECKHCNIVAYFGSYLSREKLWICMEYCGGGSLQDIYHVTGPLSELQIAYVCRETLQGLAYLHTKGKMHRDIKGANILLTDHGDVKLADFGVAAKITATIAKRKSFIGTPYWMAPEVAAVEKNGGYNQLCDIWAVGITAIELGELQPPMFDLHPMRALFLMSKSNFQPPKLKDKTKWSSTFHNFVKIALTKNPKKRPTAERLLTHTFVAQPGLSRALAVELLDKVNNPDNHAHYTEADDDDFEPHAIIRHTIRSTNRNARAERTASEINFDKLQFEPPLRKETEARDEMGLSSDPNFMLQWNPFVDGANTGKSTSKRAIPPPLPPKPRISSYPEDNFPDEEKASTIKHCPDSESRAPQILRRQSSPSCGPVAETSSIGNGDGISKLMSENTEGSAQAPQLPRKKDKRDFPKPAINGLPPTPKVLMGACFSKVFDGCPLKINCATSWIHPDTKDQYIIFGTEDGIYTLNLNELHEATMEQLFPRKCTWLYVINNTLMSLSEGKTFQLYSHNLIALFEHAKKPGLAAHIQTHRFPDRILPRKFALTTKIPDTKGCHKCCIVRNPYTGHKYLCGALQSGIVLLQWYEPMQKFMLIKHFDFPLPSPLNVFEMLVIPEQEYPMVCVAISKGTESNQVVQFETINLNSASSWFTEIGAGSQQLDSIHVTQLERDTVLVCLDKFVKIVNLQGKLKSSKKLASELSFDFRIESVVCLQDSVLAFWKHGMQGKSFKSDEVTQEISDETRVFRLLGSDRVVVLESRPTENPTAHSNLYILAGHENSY
The target in another test is EPHA2 (Homo sapiens, UniProt P29317). In words: HotSpot Kinase Assay, EPHA2.
Chain of EPHA2 (P29317 24-976): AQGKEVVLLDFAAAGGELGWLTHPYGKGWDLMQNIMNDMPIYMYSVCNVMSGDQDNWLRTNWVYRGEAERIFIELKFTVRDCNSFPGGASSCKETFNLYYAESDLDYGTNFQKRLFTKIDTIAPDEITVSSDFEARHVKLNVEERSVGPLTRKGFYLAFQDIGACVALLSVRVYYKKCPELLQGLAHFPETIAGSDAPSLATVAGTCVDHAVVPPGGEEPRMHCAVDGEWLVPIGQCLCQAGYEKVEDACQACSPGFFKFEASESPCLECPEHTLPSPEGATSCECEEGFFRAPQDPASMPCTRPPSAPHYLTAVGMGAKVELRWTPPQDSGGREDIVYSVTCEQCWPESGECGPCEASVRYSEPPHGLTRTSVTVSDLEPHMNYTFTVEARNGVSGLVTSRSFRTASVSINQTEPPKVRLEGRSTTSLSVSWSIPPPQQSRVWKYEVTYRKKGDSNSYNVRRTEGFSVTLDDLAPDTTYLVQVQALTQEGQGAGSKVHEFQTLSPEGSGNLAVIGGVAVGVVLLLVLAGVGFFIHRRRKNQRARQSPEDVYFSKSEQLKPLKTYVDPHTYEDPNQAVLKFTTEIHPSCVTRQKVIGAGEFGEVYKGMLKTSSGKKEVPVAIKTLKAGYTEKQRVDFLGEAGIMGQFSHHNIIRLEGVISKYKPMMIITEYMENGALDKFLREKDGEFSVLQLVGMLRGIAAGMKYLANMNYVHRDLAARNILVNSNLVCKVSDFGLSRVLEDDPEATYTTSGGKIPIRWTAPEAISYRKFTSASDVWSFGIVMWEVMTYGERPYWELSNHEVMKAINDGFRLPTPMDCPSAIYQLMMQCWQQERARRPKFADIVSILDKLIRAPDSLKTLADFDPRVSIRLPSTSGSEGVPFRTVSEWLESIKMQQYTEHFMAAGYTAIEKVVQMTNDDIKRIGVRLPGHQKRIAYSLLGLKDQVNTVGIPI
The target in a further test is c-MET (Homo sapiens, UniProt P08581). In words: HotSpot Kinase Assay, c-MET.
The next test addresses LOK/STK10 (Homo sapiens, UniProt O94804). Briefly: HotSpot Kinase Assay, LOK/STK10.
Another test addresses RET (Homo sapiens, UniProt P07949). In words: HotSpot Kinase Assay, RET.
Another test has as its target T1, c-MER (Homo sapiens, UniProt Q12866).
T1 sequence (Q12866 21-999): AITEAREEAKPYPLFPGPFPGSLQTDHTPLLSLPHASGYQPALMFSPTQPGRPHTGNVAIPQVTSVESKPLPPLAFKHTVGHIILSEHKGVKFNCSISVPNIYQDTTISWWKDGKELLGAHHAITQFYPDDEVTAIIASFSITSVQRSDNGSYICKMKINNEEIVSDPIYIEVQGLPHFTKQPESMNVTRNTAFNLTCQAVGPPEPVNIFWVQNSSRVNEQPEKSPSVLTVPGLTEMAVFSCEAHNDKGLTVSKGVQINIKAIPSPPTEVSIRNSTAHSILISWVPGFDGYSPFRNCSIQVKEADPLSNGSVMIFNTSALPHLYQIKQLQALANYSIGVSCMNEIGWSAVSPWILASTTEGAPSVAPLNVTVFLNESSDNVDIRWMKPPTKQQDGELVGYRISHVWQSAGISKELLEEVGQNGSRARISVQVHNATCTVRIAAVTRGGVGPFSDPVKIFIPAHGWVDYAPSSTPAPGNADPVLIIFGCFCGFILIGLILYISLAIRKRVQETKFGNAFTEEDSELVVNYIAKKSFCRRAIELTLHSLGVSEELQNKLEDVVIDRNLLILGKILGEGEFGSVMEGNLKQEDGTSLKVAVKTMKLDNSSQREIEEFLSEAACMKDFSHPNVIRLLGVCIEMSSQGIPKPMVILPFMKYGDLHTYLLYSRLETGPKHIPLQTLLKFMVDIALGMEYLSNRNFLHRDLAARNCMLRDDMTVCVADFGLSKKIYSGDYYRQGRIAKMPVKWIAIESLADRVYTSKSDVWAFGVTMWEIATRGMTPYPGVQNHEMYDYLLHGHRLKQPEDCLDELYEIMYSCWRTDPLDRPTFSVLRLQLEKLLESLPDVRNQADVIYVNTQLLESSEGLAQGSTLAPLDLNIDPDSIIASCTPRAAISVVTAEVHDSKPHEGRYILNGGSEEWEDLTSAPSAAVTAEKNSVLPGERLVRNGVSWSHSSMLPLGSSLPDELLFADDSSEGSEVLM
In words: HotSpot Kinase Assay, c-MER.

In another test the target is TRKA (Homo sapiens, UniProt P04629). Briefly: HotSpot Kinase Assay, TRKA.

Structures are written as SMILES. pIC50: −log10 of the molar value.

One may read the pIC50 as −log10 of the IC50, conventionally taken in molar units. Read a low pIC50 as a large IC50.

Chain of DDR1 (Q08345 19-913): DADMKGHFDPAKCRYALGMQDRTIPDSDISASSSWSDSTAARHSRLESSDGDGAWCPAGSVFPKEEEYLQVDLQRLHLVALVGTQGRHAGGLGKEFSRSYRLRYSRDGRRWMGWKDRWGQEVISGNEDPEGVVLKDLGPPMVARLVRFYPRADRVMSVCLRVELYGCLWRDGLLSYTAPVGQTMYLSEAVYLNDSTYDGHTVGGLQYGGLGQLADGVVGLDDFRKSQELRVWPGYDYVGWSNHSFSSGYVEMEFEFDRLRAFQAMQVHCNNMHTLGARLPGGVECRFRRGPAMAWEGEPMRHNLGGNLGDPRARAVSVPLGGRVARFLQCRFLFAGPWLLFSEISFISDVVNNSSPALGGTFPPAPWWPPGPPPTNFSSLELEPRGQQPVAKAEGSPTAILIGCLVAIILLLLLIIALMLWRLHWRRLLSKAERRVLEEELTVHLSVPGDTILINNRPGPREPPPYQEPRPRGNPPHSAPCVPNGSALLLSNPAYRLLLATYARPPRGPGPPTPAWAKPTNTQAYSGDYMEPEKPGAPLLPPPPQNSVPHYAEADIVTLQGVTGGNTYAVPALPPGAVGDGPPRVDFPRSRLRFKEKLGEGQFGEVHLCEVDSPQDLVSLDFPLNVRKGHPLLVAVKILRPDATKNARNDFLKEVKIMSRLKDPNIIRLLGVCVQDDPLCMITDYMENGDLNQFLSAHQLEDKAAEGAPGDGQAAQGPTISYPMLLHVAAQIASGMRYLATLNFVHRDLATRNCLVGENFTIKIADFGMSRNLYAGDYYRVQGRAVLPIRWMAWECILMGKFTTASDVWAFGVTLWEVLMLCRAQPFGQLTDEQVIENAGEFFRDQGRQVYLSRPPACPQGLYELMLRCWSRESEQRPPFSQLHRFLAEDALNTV
Chain of CDK7/cyclin H (P50613 whole entry): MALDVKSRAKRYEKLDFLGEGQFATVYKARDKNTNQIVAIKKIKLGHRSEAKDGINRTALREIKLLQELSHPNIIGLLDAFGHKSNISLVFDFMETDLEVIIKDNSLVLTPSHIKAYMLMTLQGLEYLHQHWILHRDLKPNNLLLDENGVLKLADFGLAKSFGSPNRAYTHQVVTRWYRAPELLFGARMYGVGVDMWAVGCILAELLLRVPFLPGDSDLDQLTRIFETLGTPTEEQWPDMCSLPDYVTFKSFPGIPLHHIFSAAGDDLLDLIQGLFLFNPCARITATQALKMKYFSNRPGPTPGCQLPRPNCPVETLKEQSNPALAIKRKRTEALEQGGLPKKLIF
Chain of CDK7/cyclin H (P51946 whole entry partner): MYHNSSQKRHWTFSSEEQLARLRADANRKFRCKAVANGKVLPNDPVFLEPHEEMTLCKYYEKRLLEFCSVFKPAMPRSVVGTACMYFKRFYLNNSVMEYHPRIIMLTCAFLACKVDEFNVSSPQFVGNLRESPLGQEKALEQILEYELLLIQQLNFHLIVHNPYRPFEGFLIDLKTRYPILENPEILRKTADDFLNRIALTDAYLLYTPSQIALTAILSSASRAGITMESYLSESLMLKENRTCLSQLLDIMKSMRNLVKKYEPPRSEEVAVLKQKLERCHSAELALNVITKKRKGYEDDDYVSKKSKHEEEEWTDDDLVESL
Chain of CDK7/cyclin H (P51948 whole entry partner): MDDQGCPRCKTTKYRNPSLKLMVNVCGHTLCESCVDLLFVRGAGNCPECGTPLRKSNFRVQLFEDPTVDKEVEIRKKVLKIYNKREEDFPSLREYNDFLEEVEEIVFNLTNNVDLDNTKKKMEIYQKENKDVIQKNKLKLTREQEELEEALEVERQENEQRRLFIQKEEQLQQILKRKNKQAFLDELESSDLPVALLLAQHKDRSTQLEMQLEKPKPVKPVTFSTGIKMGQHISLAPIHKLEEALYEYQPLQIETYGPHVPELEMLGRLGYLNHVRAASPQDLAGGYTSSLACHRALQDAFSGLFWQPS
Protocol for BRK: (§1) Specifically, for each reaction, kinase and substrate were mixed in a pH 7.5 buffer containing 20 mM HEPES, 10 mM MgCl2, 1 mM EGTA [Ethylene glycol-bis(2-aminoethylether)-N,N,N′,N′-tetraacetic acid], 0.02% Brij35, 0.02 mg/mL BSA (Bovine Serum Albumin), 0.1 mM Na3VO4, 2 mM DTT, and 1% DMSO. Compounds were then added to each reaction mixture. After a 20-min incubation, ATP (Sigma-Aldrich) and [γ-^33P] ATP (PerkinElmer) were added at a final total concentration of 100 μM. Reactions were carried out at room temperature for 2 hours and spotted onto P81 ion exchange cellulose chromatography paper (Whatman). […] The percent remaining kinase activity relative to a vehicle-containing (DMSO) kinase reaction was calculated for each kinase/inhibitor pair. […] IC50 values were calculated using Prism 5 (GraphPad).
Protocol for CDK7/cyclin H: as §1
Protocol for DDR1: as §1
Protocol for EPHA1: as §1
Protocol for FLT1: as §1
Protocol for FLT3: as §1
Protocol for KHS/MAP4K5: as §1
Protocol for MEK1: as §1
Protocol for PLK4/SAK: as §1
Protocol for RET: as §1
Protocol for TIE2/TEK: as §1
Protocol for TRKA: as §1
Protocol for c-MET: as §1

As for `COc1cc2c(Oc3ccc(NC(=O)C4(C(=O)Nc5ccc(F)cc5)CC4)cc3)ccnc2cc1OC(=O)N1CCN(C)CC1` [Compound 1-10], the pIC50 at EPHA1 was under 6.00; against FLT3, over 7.00; on FLT1, 6.00 to 7.00; at CDK7/cyclin H, under 6.00; on MEK1, under 6.00; against DDR1 it was over 7.00. Moreover, the negative-log IC50 (pIC50) against TIE2/TEK was under 6.00; against BRK it was over 7.00; at PLK4/SAK it was under 6.00; on KHS/MAP4K5 it was under 6.00; against EPHA2, over 7.00; at c-MET, over 7.00. Also, the pIC50 on LOK/STK10 was 6.00 to 7.00; against RET, 6.00 to 7.00; against c-MER, over 7.00; at TRKA it was over 7.00.
